# Values quoted from earlier work, collected in patent US9834484B1, “Plant enhancer and a method of using the same” (priority 2016, dated 2017).
# System: tumor growth
# Settings: some studies show
substance,measurement,value
β-glucan,inhibits tumor growth,more than 95%
